Measured values reported in US8846659B2 (priority 2010, dated 2014).
Where a name gives a salt, the structure may show the parent alone.

How the values were obtained:
[1] = system: recombinant NL-Rluc virus; experiment: Inhibition of HIV replication: susceptibility of recombinant NL-Rluc virus to compounds; assay type: cell-based; details: Human immunodeficiency virus 1, read-out: Activity (EC50, 50% effective concentration)
HIV integrase = HIV integrase (Human immunodeficiency virus type 1 group M subtype B, UniProt P12497); experiment: HIV-integrase inhibition activity: inhibition of [3H]BMS-641493 binding to enzyme-SPA bead complexes; details: competition with [3H]BMS-641493, enzyme-SPA bead complexes; read-out: Activity (Ki toward integrase)
Text: HIV-Integrase Inhibition Activity.
Radiolabeled integrase inhibitor, BMS-641493 was used as a known reference ligand to determine the binding constants towards the integrase enzyme of the compounds described in this invention using a method similar to that described in; Dicker et al. J. Biological Chem. 2007, 282, 31186-31196; Dicker et al. J. Biol. Chem. 2008, 283, 23599-23609 and Dicker et al. Biochemistry 2008, 47, 13481-13488. BMS-641493 is a known active-site binding inhibitor as it can be competed […] for [3H]BMS-641493 were determined from fitting data to a saturation binding curve using Graphpad Prism, V4.01. The Ki measurement toward integrase was made by measuring the inhibition of binding of [3H]BMS-641493 to enzyme-SPA bead complexes in the presence of serial dilutions of the test compounds. The Ki value was determined from the [3H]BMS-641493 Kd and the inhibition binding curve using Graphpad Prism, V4.03.

Structure (SMILES): NC12CCC(CC1)Cn1c2nc(-c2ncc(Cc3ccc(F)cc3)[nH]2)c(O)c1=O [Example 1, 10-Amino-2-[4-[(4-fluorophenyl)methyl]-1H-imidazol-2-yl]-7,8,9,10-tetrahydro-3-hydroxy-7,10-ethanopyrimido[1,2-a]azepin-4(6H)-one]
- EC50 [1]: 21 nM

Structure (SMILES): CN(C)C(=O)C(=O)NC12CCC(CC1)Cn1c2nc(-c2ncc(Cc3ccc(F)cc3)[nH]2)c(O)c1=O [Example 2, N′-(2-(4-(4-Fluorobenzyl)-1H-imidazol-2-yl)-3-hydroxy-4-oxo-6,7,8,9-tetrahydro-7,10-ethanopyrimido[1,2-a]azepin-10(4H)-yl)-N,N-dimethylethanediamide]
- Ki (HIV integrase): 21 nM
- EC50 [1]: 5 nM

Structure (SMILES): O=C(NC12CCC(CC1)Cn1c2nc(-c2ncc(Cc3ccc(F)cc3)[nH]2)c(O)c1=O)C(=O)N1CCCC1 [Example 3, N-(2-(4-(4-Fluorobenzyl)-1H-imidazol-2-yl)-3-hydroxy-4-oxo-6,7,8,9-tetrahydro-7,10-ethanopyrimido[1,2-a]azepin-10(4H)-yl)-2-oxo-2-(pyrrolidin-1-yl)acetamide]
- Ki (HIV integrase): 122 nM
- EC50 [1]: 18 nM

Structure (SMILES): Cc1cc(C(=O)NC23CCC(CC2)Cn2c3nc(-c3ncc(Cc4ccc(F)cc4)[nH]3)c(O)c2=O)no1 [Example 4, N-(2-(4-(4-Fluorobenzyl)-1H-imidazol-2-yl)-3-hydroxy-4-oxo-6,7,8,9-tetrahydro-7,10-ethanopyrimido[1,2-a]azepin-10(4H)-yl)-5-methyl-1,2-oxazole-3-carboxamide]
- Ki (HIV integrase): 21 nM
- EC50 [1]: 8 nM

Structure (SMILES): NC12CCC(CC1)Cn1c2nc(-c2ncc(Cc3ccc(F)cc3)s2)c(O)c1=O [Example 5]
- Ki (HIV integrase): 3880 nM
- EC50 [1]: 60 nM

Structure (SMILES): CN(C)C(=O)C(=O)NC12CCC(CC1)Cn1c2nc(-c2ncc(Cc3ccc(F)cc3)s2)c(O)c1=O [Example 6, N′-(2-(5-(4-Fluorobenzyl)-1,3-thiazol-2-yl)-3-hydroxy-4-oxo-6,7,8,9-tetrahydro-7,10-ethanopyrimido[1,2-a]azepin-10(4H)-yl)-N,N-dimethylethanediamide]
- Ki (HIV integrase): 400 nM
- EC50 [1]: 1 nM

Structure (SMILES): CN(C)C(=O)C(=O)NC12CCC(CC1)Cn1c2nc(-c2nnc(Cc3ccc(F)cc3)o2)c(O)c1=O [Example 7, N′-(2-(5-(4-Fluorobenzyl)-1,3,4-oxadiazol-2-yl)-3-hydroxy-4-oxo-6,7,8,9-tetrahydro-7,10-ethanopyrimido[1,2-a]azepin-10(4H)-yl)-N,N-dimethylethanediamide]
- Ki (HIV integrase): 222 nM
- EC50 [1]: 2 nM

Structure (SMILES): CN(C)C(=O)C(=O)NC12CCC(CC1)Cn1c2nc(-c2ncc(Cc3ccc(F)cc3)o2)c(O)c1=O [Example 8, N′-(4-(5-(4-Fluorobenzyl)-1,3-oxazol-2-yl)-3-hydroxy-4-oxo-6,7,8,9-tetrahydro-7,10-ethanopyrimido[1,2-a]azepin-10(4H)-yl)-N,N-dimethylethanediamide]
- Ki (HIV integrase): 115 nM
- EC50 [1]: 0.4 nM

Structure (SMILES): CN(C)C(=O)C(=O)NC12CCC(CC1)Cn1c2nc(-c2ncn(Cc3ccc(F)cc3)n2)c(O)c1=O [Example 9, N′-[2-[1-[(4-Fluorophenyl)methyl]-1H-1,2,4-triazol-3-yl]-6,7,8,9-tetrahydro-3-hydroxy-4-oxo-7,10-ethanopyrimido[1,2-a]azepin-10(4H)-yl]-N,N-dimethylethanediamide]
- Ki (HIV integrase): 1070 nM

Structure (SMILES): Cc1cc(Cc2cnc(-c3nc4n(c(=O)c3O)CC3CCC4(NC(=O)C(=O)N(C)C)CC3)[nH]2)ccc1F [Example 10, N′-[2-[4-[(4-Fluoro-3-methylphenyl)methyl]-1H-imidazol-2-yl]-6,7,8,9-tetrahydro-3-hydroxy-4-oxo-7,10-ethanopyrimido[1,2-a]azepin-10(4H)-yl]-N,N-dimethyl-ethanediamide trifluoroacetate salt]
- Ki (HIV integrase): 9 nM
- EC50 [1]: 6 nM

Structure (SMILES): Cc1cc(Cc2cnc(-c3nc4n(c(=O)c3O)CC3CCC4(NC(=O)c4cccnc4)CC3)[nH]2)ccc1F [Example 11, N-[2-[4-[(4-Fluoro-3-methylphenyl)methyl]-1H-imidazol-2-yl]-6,7,8,9-tetrahydro-3-hydroxy-4-oxo-7,10-ethanopyrimido[1,2-a]azepin-10(4H)-yl]-3-pyridinecarboxamide trifluoroacetate salt]
- Ki (HIV integrase): 19 nM
- EC50 [1]: 24 nM

Structure (SMILES): Cc1cc(Cc2cnc(-c3nc4n(c(=O)c3O)CC3CCC4(NC(=O)c4cccnn4)CC3)[nH]2)ccc1F [Example 12, N-[2-[4-[(4-Fluoro-3-methylphenyl)methyl]-1H-imidazol-2-yl]-6,7,8,9-tetrahydro-3-hydroxy-4-oxo-7,10-ethanopyrimido[1,2-a]azepin-10(4H)-yl]-3-pyridazinecarboxamide trifluoroacetate salt]
- Ki (HIV integrase): 13 nM
- EC50 [1]: 8 nM

Structure (SMILES): CN(C)C(=O)C(=O)N(C)C12CCC(CC1)Cn1c2nc(-c2ncc(Cc3ccc(F)cc3)[nH]2)c(O)c1=O [Example 13, N-[2-[4-[(4-Fluorophenyl)methyl]-1H-imidazol-2-yl]-6,7,8,9-tetrahydro-3-hydroxy-4-oxo-7,10-ethanopyrimido[1,2-a]azepin-10(4H)-yl]-N,N′,N′-trimethyl-ethanediamide trifluoroacetate salt]
- Ki (HIV integrase): 13 nM
- EC50 [1]: 2 nM

Structure (SMILES): Cc1cc(Cc2c[nH]c(-c3nc4n(c(=O)c3O)CC3CCC4(NC(=O)C(C)(C)n4cncn4)CC3)n2)ccc1F [Example 14, N-[2-[4-[(4-Fluoro-3-methylphenyl)methyl]-1H-imidazol-2-yl]-6,7,8,9-tetrahydro-3-hydroxy-4-oxo-7,10-ethanopyrimido[1,2-a]azepin-10(4H)-yl]-alpha,alpha-dimethyl-1H-1,2,4-triazole-1-acetamide trifluoroacetate salt]
- Ki (HIV integrase): 41 nM
- EC50 [1]: 7 nM

Structure (SMILES): CC(=O)N(C)C1(C(=O)NC23CCC(CC2)Cn2c3nc(-c3ncc(Cc4ccc(F)c(C)c4)[nH]3)c(O)c2=O)CC1 [Example 15, 1-(Acetylmethylamino)-N-[2-[4-[(4-fluoro-3-methylphenyl)methyl]-1H-imidazol-2-yl]-6,7,8,9-tetrahydro-3-hydroxy-4-oxo-7,10-ethanopyrimido[1,2-a]azepin-10(4H)-yl]-cyclopropanecarboxamide trifluoroacetate salt]
- Ki (HIV integrase): 57 nM
- EC50 [1]: 53 nM

Structure (SMILES): CN(C)C(=O)C(=O)NC12CCC(CC1)Cn1c2nc(-c2nnc(Cc3ccc(F)cc3)s2)c(O)c1=O [Example 16, N′-[2-[5-[(4-Fluorophenyl)methyl]-1,3,4-thiadiazol-2-yl]-6,7,8,9-tetrahydro-3-hydroxy-4-oxo-7,10-ethanopyrimido[1,2-a]azepin-10(4H)-yl]-N,N-dimethylethanediamide]
- Ki (HIV integrase): 1470 nM
- EC50 [1]: 21 nM

Structure (SMILES): Cc1cc(Cc2c[nH]c(-c3nc4n(c(=O)c3O)CC3CCC4(N(C)C(=O)C(=O)N(C)C)CC3)n2)ccc1F [Example 17, N-[2-[4-[(4-Fluoro-3-methylphenyl)methyl]-1H-imidazol-2-yl]-6,7,8,9-tetrahydro-3-hydroxy-4-oxo-7,10-ethanopyrimido[1,2-a]azepin-10(4H)-yl]-N,N′,N′-trimethyl-ethanediamide trifluoroacetate salt]
- Ki (HIV integrase): 10 nM
- EC50 [1]: 5 nM

Structure (SMILES): Cc1cc(Cc2cnc(-c3nc4n(c(=O)c3O)CC3CCC4(NC(=O)c4ccn(C)n4)CC3)[nH]2)ccc1F [Example 18, N-[2-[4-[(4-Fluoro-3-methylphenyl)methyl]-1H-imidazol-2-yl]-6,7,8,9-tetrahydro-3-hydroxy-4-oxo-7,10-ethanopyrimido[1,2-a]azepin-10(4H)-yl]-1-methyl-1H-pyrazole-3-carboxamide]
- Ki (HIV integrase): 16 nM
- EC50 [1]: 5 nM
